± gives the expanded uncertainty stated by the source.
Assay: xn = mol fraction of the nth substance listed
Details: 101 kPa, Liquid; for viscosity: Capillary tube (Ostwald / Ubbelohde) method

CCCCCCOCCOCCO [2-(2-hexyloxyethoxy)ethanol] + O
mass density [kg/m3]
Details | 283.15 K | 288.15 K | 293.15 K | 303.15 K | 313.15 K
x1 = 0.0005 | 999.68 ± 0.12 | 999.08 ± 0.13 | 998.19 ± 0.13 | 995.64 ± 0.13 | 992.26 ± 0.14
x1 = 0.00075 | 999.67 ± 0.12 | 999.06 ± 0.13 | 998.17 ± 0.13 | 995.59 ± 0.13 | 992.23 ± 0.14
x1 = 0.001 | 999.66 ± 0.12 | 999.07 ± 0.13 | 998.17 ± 0.13 | 995.58 ± 0.13 | 992.18 ± 0.14
x1 = 0.00118 | 999.7 ± 0.12 | 999.09 ± 0.13 | 998.17 ± 0.13 | 995.57 ± 0.13 | 992.11 ± 0.14
x1 = 0.00135 | 999.76 ± 0.12 | 999.14 ± 0.13 | 998.2 ± 0.13 | 995.58 ± 0.13 | 992.03 ± 0.14
x1 = 0.0015 | 999.84 ± 0.12 | 999.17 ± 0.13 | 998.16 ± 0.13 | 995.51 ± 0.13 | 991.94 ± 0.14
x1 = 0.00164 | 999.86 ± 0.12 | 999.18 ± 0.13 | 998.09 ± 0.13 | – | –
x1 = 0.00196 | 999.87 ± 0.12 | 999.15 ± 0.13 | – | – | –
x1 = 0.00225 | 999.88 ± 0.12 | 999.08 ± 0.13 | – | – | –
x1 = 0.01501 | 995.9 ± 0.13 | – | – | – | –
x1 = 0.01996 | 994.71 ± 0.13 | – | – | – | –
x1 = 0.02493 | 993.53 ± 0.13 | – | – | – | –
x1 = 0.03004 | 992.45 ± 0.14 | – | – | – | –
x1 = 0.03536 | 991.13 ± 0.14 | – | – | – | –
x1 = 0.03996 | 990.1 ± 0.14 | – | – | – | –
x1 = 0.04496 | 989.11 ± 0.14 | – | – | – | –
x1 = 0.0501 | 988.12 ± 0.14 | 985.54 ± 0.15 | – | – | –
x1 = 0.05911 | 986.43 ± 0.15 | 983.76 ± 0.15 | – | – | –
x1 = 0.06985 | 984.69 ± 0.15 | 982.01 ± 0.15 | 979.28 ± 0.16 | – | –
x1 = 0.07977 | 983.2 ± 0.15 | 980.24 ± 0.16 | 977.23 ± 0.16 | – | –
x1 = 0.08835 | 982.02 ± 0.15 | 978.92 ± 0.16 | 975.77 ± 0.16 | – | –
x1 = 0.09988 | 980.51 ± 0.16 | 977.4 ± 0.16 | 973.98 ± 0.17 | – | –
x1 = 0.1332 | 976.63 ± 0.16 | 973.14 ± 0.17 | 969.58 ± 0.17 | 962.38 ± 0.19 | –
x1 = 0.2029 | 970.18 ± 0.17 | 966.49 ± 0.18 | 962.68 ± 0.19 | 955.04 ± 0.2 | 947.26 ± 0.21
x1 = 0.2856 | 964.36 ± 0.19 | 960.42 ± 0.19 | 956.52 ± 0.2 | 948.66 ± 0.21 | 940.71 ± 0.22
x1 = 0.3597 | 960.18 ± 0.19 | 956.18 ± 0.2 | 952.21 ± 0.21 | 944.22 ± 0.22 | 936.21 ± 0.23
x1 = 0.4529 | 955.83 ± 0.2 | 951.8 ± 0.21 | 947.82 ± 0.22 | 939.82 ± 0.23 | 931.76 ± 0.24
x1 = 0.5426 | 952.4 ± 0.21 | 948.39 ± 0.22 | 944.4 ± 0.23 | 936.42 ± 0.24 | 928.33 ± 0.25
x1 = 0.6772 | 948.33 ± 0.23 | 944.25 ± 0.23 | 940.24 ± 0.24 | 932.25 ± 0.25 | 924.21 ± 0.26
x1 = 0.827 | 945.13 ± 0.24 | 941.05 ± 0.25 | 937.03 ± 0.25 | 929.05 ± 0.26 | 921.02 ± 0.28
x1 = 1 | 942.09 ± 0.26 | 938.05 ± 0.26 | 934.06 ± 0.27 | 926.08 ± 0.28 | 918.17 ± 0.29

CCCCOCCO [2-butoxyethan-1-ol] + O
Details | mass density, 283.15 K [kg/m3] | mass density, 293.15 K [kg/m3] | mass density, 303.15 K [kg/m3] | mass density, 313.15 K [kg/m3] | mass density, 323.15 K [kg/m3] | viscosity, 283.15 K [mPa·s] | viscosity, 293.15 K [mPa·s] | viscosity, 303.15 K [mPa·s] | viscosity, 313.15 K [mPa·s] | viscosity, 323.15 K [mPa·s]
x1 = 0.0005 | 999.62 ± 0.12 | 998.13 ± 0.13 | 995.57 ± 0.13 | 992.12 ± 0.14 | – | – | – | – | – | –
x1 = 0.001 | 999.53 ± 0.12 | 998.01 ± 0.13 | 995.46 ± 0.13 | 992.02 ± 0.14 | – | – | – | – | – | –
x1 = 0.00201 | 999.43 ± 0.13 | 997.89 ± 0.13 | 995.29 ± 0.13 | 991.8 ± 0.14 | – | – | – | – | – | –
x1 = 0.003 | 999.37 ± 0.13 | 997.78 ± 0.13 | 995.12 ± 0.13 | 991.58 ± 0.14 | – | – | – | – | – | –
x1 = 0.00399 | 999.24 ± 0.13 | 997.6 ± 0.13 | 994.89 ± 0.13 | 991.31 ± 0.14 | – | – | – | – | – | –
x1 = 0.005 | 999.06 ± 0.13 | 997.34 ± 0.13 | 994.59 ± 0.13 | 990.98 ± 0.14 | – | – | – | – | – | –
x1 = 0.00601 | 998.89 ± 0.13 | 997.11 ± 0.13 | 994.27 ± 0.13 | 990.64 ± 0.14 | – | – | – | – | – | –
x1 = 0.00699 | 998.86 ± 0.13 | 996.97 ± 0.13 | 994.06 ± 0.13 | 990.36 ± 0.14 | – | – | – | – | – | –
x1 = 0.00801 | 998.8 ± 0.13 | 996.83 ± 0.13 | 993.86 ± 0.13 | 990.11 ± 0.14 | – | – | – | – | – | –
x1 = 0.00896 | 998.72 ± 0.13 | 996.7 ± 0.13 | 993.69 ± 0.13 | 989.86 ± 0.14 | – | – | – | – | – | –
x1 = 0.00998 | 998.68 ± 0.13 | 996.57 ± 0.13 | 993.5 ± 0.13 | 989.6 ± 0.14 | – | – | – | – | – | –
x1 = 0.01102 | 998.64 ± 0.13 | 996.43 ± 0.13 | 993.3 ± 0.13 | 989.31 ± 0.14 | – | – | – | – | – | –
x1 = 0.01209 | 998.59 ± 0.13 | 996.3 ± 0.13 | 993.09 ± 0.14 | 988.99 ± 0.14 | – | – | – | – | – | –
x1 = 0.01317 | 998.55 ± 0.13 | 996.16 ± 0.13 | 992.85 ± 0.14 | 988.65 ± 0.14 | – | – | – | – | – | –
x1 = 0.01401 | 998.49 ± 0.13 | 996.02 ± 0.13 | 992.63 ± 0.14 | 988.37 ± 0.14 | – | – | – | – | – | –
x1 = 0.01499 | 998.49 ± 0.13 | 995.91 ± 0.13 | 992.38 ± 0.14 | 988.01 ± 0.14 | – | – | – | – | – | –
x1 = 0.01959 | 998.45 ± 0.13 | 994.9 ± 0.13 | 990.79 ± 0.14 | 985.95 ± 0.15 | – | – | – | – | – | –
x1 = 0.02529 | 997 ± 0.13 | 992.94 ± 0.14 | 988.38 ± 0.14 | 983.21 ± 0.15 | – | – | – | – | – | –
x1 = 0.0307 | 995.31 ± 0.13 | 990.88 ± 0.14 | 986.03 ± 0.15 | 980.66 ± 0.16 | – | – | – | – | – | –
x1 = 0.03495 | 993.94 ± 0.13 | 989.28 ± 0.14 | 984.22 ± 0.15 | 978.71 ± 0.16 | – | – | – | – | – | –
x1 = 0.04047 | 992.16 ± 0.14 | 987.22 ± 0.15 | 981.99 ± 0.15 | 976.24 ± 0.16 | – | – | – | – | – | –
x1 = 0.04524 | 990.59 ± 0.14 | 985.5 ± 0.15 | 980.12 ± 0.16 | 974.25 ± 0.17 | – | – | – | – | – | –
x1 = 0.04961 | 989.23 ± 0.14 | 983.99 ± 0.15 | 978.47 ± 0.16 | 972.5 ± 0.17 | – | – | – | – | – | –
x1 = 0.05991 | 986.08 ± 0.15 | 980.54 ± 0.16 | 974.75 ± 0.17 | 968.52 ± 0.18 | – | – | – | – | – | –
x1 = 0.06979 | 983.28 ± 0.15 | 977.49 ± 0.16 | 971.48 ± 0.17 | 965.02 ± 0.18 | – | – | – | – | – | –
x1 = 0.07979 | 980.63 ± 0.16 | 974.61 ± 0.17 | 968.38 ± 0.18 | 961.77 ± 0.19 | – | – | – | – | – | –
x1 = 0.08979 | 978.05 ± 0.16 | 971.87 ± 0.17 | 965.46 ± 0.18 | 958.67 ± 0.19 | – | – | – | – | – | –
x1 = 0.1003 | 975.52 ± 0.17 | 969.12 ± 0.18 | 962.59 ± 0.19 | 955.66 ± 0.2 | – | 5.489 ± 0.048 | 3.791 ± 0.042 | 2.772 ± 0.029 | 2.126 ± 0.027 | –
x1 = 0.2 | 957.51 ± 0.2 | 950.15 ± 0.21 | 942.62 ± 0.22 | 934.8 ± 0.24 | 926.83 ± 0.25 | 7.107 ± 0.068 | 4.854 ± 0.054 | 3.483 ± 0.037 | 2.584 ± 0.026 | 1.979 ± 0.024
x1 = 0.3 | 945.28 ± 0.23 | 937.5 ± 0.24 | 929.57 ± 0.25 | 921.47 ± 0.27 | 913.23 ± 0.28 | 7.415 ± 0.074 | 5.079 ± 0.057 | 3.64 ± 0.039 | 2.698 ± 0.028 | 2.054 ± 0.022
x1 = 0.4 | 935.77 ± 0.26 | 927.76 ± 0.27 | 919.6 ± 0.28 | 911.3 ± 0.29 | 902.87 ± 0.3 | 7.234 ± 0.074 | 4.994 ± 0.056 | 3.594 ± 0.038 | 2.672 ± 0.028 | 2.038 ± 0.022
x1 = 0.5 | 928.69 ± 0.28 | 920.54 ± 0.29 | 912.16 ± 0.31 | 903.78 ± 0.32 | 895.22 ± 0.33 | 6.83 ± 0.071 | 4.761 ± 0.053 | 3.448 ± 0.037 | 2.583 ± 0.027 | 1.981 ± 0.021
x1 = 0.6 | 923.16 ± 0.31 | 914.96 ± 0.32 | 906.6 ± 0.33 | 898.14 ± 0.34 | 889.56 ± 0.35 | 6.352 ± 0.066 | 4.476 ± 0.05 | 3.272 ± 0.035 | 2.465 ± 0.026 | 1.901 ± 0.021
x1 = 0.7 | 918.7 ± 0.33 | 910.49 ± 0.35 | 902.02 ± 0.36 | 893.57 ± 0.37 | 884.96 ± 0.38 | 5.857 ± 0.062 | 4.172 ± 0.047 | 3.079 ± 0.033 | 2.337 ± 0.025 | 1.813 ± 0.02
x1 = 0.7999 | 915.01 ± 0.36 | 906.78 ± 0.37 | 898.3 ± 0.39 | 889.84 ± 0.4 | 881.26 ± 0.41 | 5.36 ± 0.057 | 3.865 ± 0.043 | 2.879 ± 0.031 | 2.205 ± 0.024 | 1.721 ± 0.019
x1 = 0.9 | 912.08 ± 0.4 | 903.8 ± 0.41 | 895.3 ± 0.42 | 886.83 ± 0.43 | 878.23 ± 0.44 | 4.885 ± 0.053 | 3.56 ± 0.04 | 2.679 ± 0.029 | 2.068 ± 0.022 | 1.629 ± 0.018
x1 = 1 | 909.49 ± 0.43 | 901.18 ± 0.44 | 892.68 ± 0.45 | 884.21 ± 0.46 | 875.6 ± 0.47 | 4.46 ± 0.049 | 3.288 ± 0.037 | 2.499 ± 0.028 | 1.946 ± 0.021 | 1.543 ± 0.017

From the NIST ThermoML archive (doi:10.1021/je900478c)
